One data set deals with Huntington's disease. The data set can be described thus: randomised double blind trial of 96% pure ethyl-EPA in Huntington's disease. Format: in vivo, human. Conditions: 2 g/day, 6 months. The procedure:
Because early Huntington's disease may present with schizophrenia-like features, a randomised trial of 96% pure ethyl-EPA was set up in seven severely disabled patients in the final stages of Huntington's disease. All required 24 hour nursing care, had severe movement disorders, were irritable and were partially demented. They were randomised on a double blind basis to receive 2 g/day ethyl-EPA or 2 g/day placebo for 6 months. […] In four of the patients, two on ethyl-EPA and two on placebo, the brain degeneration was assessed at the beginning and end of the study by magnetic resonance imaging (MRI). MRI allows an accurate assessment of the size of the lateral ventricles, the fluid-filled spaces within the cerebral hemispheres. As Huntington's disease progresses, the lateral ventricles enlarge indicating loss of brain tissue. In the two patients on placebo over 6 months the ventricles enlarged as expected.

Data set [1] concerns schizophrenia. The data set is described as follows: case report: schizophrenia, fish oil switched to ethyl-EPA. Format: in vivo, human. The source says: This provided around 1.9 g/day of EPA and 0.6 g/day of DHA. They were not taking other antipsychotic drugs. […] However, when they did this the symptoms returned and it was concluded that they had to take around 2 g/day of EPA to remain well. When the purified ethyl-EPA became available, they were switched to 4×0.5 g capsules, also providing around 2 g/day. […] They therefore dropped the dose to 1 g/day.

The subject of data set [2] is schizophrenia. The data set is described as follows: case history: schizophrenia, ethyl-EPA added to haloperidol. The data set is classed as in vivo, human. The following applies: 4 g/day in addition to haloperidol, eight weeks. The source says:
A person had become ill with schizophrenia. They had florid hallucinations and paranoia, but also withdrew themself from most of their friendships and lived alone. […] They lived alone, ceased to communicate with most of their friends, and went around to town alone and muttering to […]. Their psychiatrist heard about ethyl-EPA and decided to try it in addition to the standard drug. After eight weeks on treatment with 4 g/day their outlook was transformed. […] They were even persuaded to go on holiday with their family where they enjoyed themself and made new friends. The EPA therefore reversed the extreme withdrawal which appeared to have been exaggerated by haloperidol.

The subject of data set [3] is attention deficit hyperactivity disorder (ADHD). The data set is described as follows: case report: child with ADHD. Format: in vivo, human. Conditions: two capsules per day, after two weeks. The source says: Attention deficit hyperactivity disorder (ADHD): ADHD and closely related conditions like attention deficit disorder and conduct disorders are commonly found in children. Occasionally they may be successfully treated by behaviour modification and other psychological techniques or by careful attention to diet. However, in most cases, paradoxical treatment with one of the stimulant drugs related in their action to amphetamine is required. Methylphenidate and dextroamphetamine are the commonest used. A child with serious ADHD since infancy was driving their parents to distraction. […] The parents were concerned about the long term consequences of stimulant drugs. The child was therefore tried on two capsules of pure ethyl-EPA per day. […] The child became less tense and irritable, less hyperactive, more open to reasoned discussion and enormously less disruptive both at home and school. Even when their methylphenidate was stopped, their behaviour remained improved.

Data set [4] has as its system panic and anxiety disorders. The data set can be described thus: case histories: panic and anxiety disorders. The data set is classed as in vivo, human. The procedure: We have now treated several patients who have panic and anxiety disorders with purified ethyl-EPA with excellent effect. Three case histories follow. A person was disabled as a result of frequent and uncontrollable panic attacks and palpitations. […] They were then given a dose of 2 g per day of ethyl EPA as four 500 mg capsules. […] A person had suffered from mild anxiety and panic attacks for most of their life but these had become much worse over the previous few years in association with various problems with their children. Anxiolytics and antidepressants had only modest effects and their palpitations were uncontrolled even by relatively high doses of beta-blockers. Again they were treated with ethyl-EPA over a period of four months. […] The third patient was a housewife who had been through two divorces and was now in a long-term relationship. They had several panic attacks every week, sometimes in the middle of the night, and always accompanied by strong palpitations which were very worrying for them. These panic attacks were accompanied by depression. They were very reluctant to go out for fear of having an attack and this seriously disrupted their life. Again, antidepressants, beta-blockers and anxiolytics had had only limited beneficial effects. […] Sometimes, they felt that an attack of palpitations might be coming on but it rarely materialised. As a result, they felt increasing confidence and was able to resume a much more normal life.

For the next data set, the system named is bipolar disorder. The data set can be described thus: case reports: five patients with bipolar disorder. The data set is classed as in vivo, human. Conditions: 2 g/day after switch from fish oil. The source says:
This provided 1.8-3.6 g of EPA and 1.2-2.4 g of DHA per day. […] They were, however, far from completely normal. When the pure ethyl-EPA became available, they were switched from the fish oil to the pure EPA at a dose of 2 g/day in the form of four 0.5 g soft gelatin capsules. […] In particular they all noted an improvement in something which is difficult to measure by conventional psychiatric rating scales. This is a sense of inner tension or dysphoria, a state which is associated with the illness, but which may be exaggerated or changed by antipsychotic drugs to a state of confused tension, sometimes described as a sense of the brain being replaced by cotton wool, and a difficulty of thinking clearly in a straight line. […] They had not noticed this effect which being treated with the higher dose of EPA in the form of the EPA/DHA mix in fish oil.

Data set [5] deals with schizophrenia, drug-induced obesity. Format: in vivo, human. The following applies: ethyl-EPA in addition to olanzapine, six months. The text has this: Obesity is another common side effect of antipsychotropic drugs. In this respect some of the newer drugs like olanzapine frequently seem to be even worse offenders than the typical neuroleptics. […] They preferred the olanzapine but it still left their withdrawn and unable to communicate normally with friends or family. To their distress it caused them to put on over 10 kg in weight. Their doctor decided to test ethyl-EPA in addition to olanzapine.

The next data set has as its system schizophrenic breakdown. The following applies: 2 g/day with olanzapine, after about 4 weeks. The source says:
(§1) In addition to citalopram they were then given 1 g/day of ethyl-EPA. […] Another case was a young person who dropped out of college with a schizophrenic breakdown.

Data set [6] deals with clozapine-induced hypersalivation. The data set can be described thus: three clozapine-treated patients with hypersalivation. Format: in vivo, human. The text has this:
Clozapine is regarded as a particularly effective drug by many psychiatrists but it has a range of severe side effects. From the patient's point of view one of the most troublesome is hypersalivation. This may not sound very serious but the constant flow of large volumes of saliva is in fact very distressing for the patient and for those who are associated with the patient. The mechanism of the hypersalivation is unknown.

Another data set relates to severe depression. The data set is described as follows: case history: severe depression, ethyl-EPA added to citalopram. The data set is classed as in vivo, human. The following applies: 1 g/day in addition to citalopram, after four weeks.
Excerpt: as §1

In the case of `CC/C=C\C/C=C\C/C=C\C/C=C\C/C=C\CCCC(=O)OCC` [ethyl-EPA], the “clinical course of Huntington's disease” value in the data set on Huntington's disease (three patients) is on record as “improved”. Besides, in the data set on Huntington's disease (two patients), the “lateral ventricle size by MRI” value was “reduction in lateral ventricle size”. Also, the “recurrence of symptoms after dose reduction” value in the data set on schizophrenia [1] (1 g/day) is “did not lead to a recurrence of symptoms”. The “control of schizophrenia symptoms” value in the data set on schizophrenia [1] (4x0.5 g capsules, around 2 g/day) is “controlled their symptoms very well”. Also, in the data set with schizophrenia [2], the residual hallucinations result is on record as “residual hallucinations disappeared”. Further, in [3], the “behaviour in ADHD” value was “substantial improvement in behaviour”. Also, the “panic attacks and palpitations” value in data set [4] (housewife, four months) is “dramatic reduction in their panic attacks and palpitations”. Moreover, the “panic attacks and palpitations” value in [4] (person, 2 g per day, three months) is reported as “almost absent”. The “anxiety and panic attacks” value in data set [4] (person, four months) is “much less severe”. In the data set on bipolar disorder, the “clinical condition in bipolar disorder” value was “clinical condition improved considerably”; the “sense of dysphoria, tension and cotton-wool thinking” value is given as “greatly reduced or disappeared altogether”. Besides, in data set [5], the withdrawn state result was “gradually improved”. In addition, the clarity of thinking result in the data set on schizophrenic breakdown is recorded as “thinking more clearly”. Also, in [6], the psychiatric state result was “substantial improvement in psychiatric state” and the salivation result was “dramatically reduced the salivation to normal levels”. Moreover, in the data set on severe depression, the effect on mood entry is “lightening of mood”.

Source of the values: patent US6384077B1, “Highly purified EPA for treatment of schizophrenia and related disorders” (Laxdale Limited, priority 1999, dated 2002).
